This note sets out measurements from patent US8299048B2, “Hexahydrocyclopentyl[f]indazole sulfonamides and derivatives thereof as selective glucocorticoid receptor modulators” (Merck Sharp & Dohme Corp., priority 2008, dated 2012).

For assay [1], the target named is T1, human GR (Homo sapiens, UniProt P04150).
T1 sequence (P04150 1-777): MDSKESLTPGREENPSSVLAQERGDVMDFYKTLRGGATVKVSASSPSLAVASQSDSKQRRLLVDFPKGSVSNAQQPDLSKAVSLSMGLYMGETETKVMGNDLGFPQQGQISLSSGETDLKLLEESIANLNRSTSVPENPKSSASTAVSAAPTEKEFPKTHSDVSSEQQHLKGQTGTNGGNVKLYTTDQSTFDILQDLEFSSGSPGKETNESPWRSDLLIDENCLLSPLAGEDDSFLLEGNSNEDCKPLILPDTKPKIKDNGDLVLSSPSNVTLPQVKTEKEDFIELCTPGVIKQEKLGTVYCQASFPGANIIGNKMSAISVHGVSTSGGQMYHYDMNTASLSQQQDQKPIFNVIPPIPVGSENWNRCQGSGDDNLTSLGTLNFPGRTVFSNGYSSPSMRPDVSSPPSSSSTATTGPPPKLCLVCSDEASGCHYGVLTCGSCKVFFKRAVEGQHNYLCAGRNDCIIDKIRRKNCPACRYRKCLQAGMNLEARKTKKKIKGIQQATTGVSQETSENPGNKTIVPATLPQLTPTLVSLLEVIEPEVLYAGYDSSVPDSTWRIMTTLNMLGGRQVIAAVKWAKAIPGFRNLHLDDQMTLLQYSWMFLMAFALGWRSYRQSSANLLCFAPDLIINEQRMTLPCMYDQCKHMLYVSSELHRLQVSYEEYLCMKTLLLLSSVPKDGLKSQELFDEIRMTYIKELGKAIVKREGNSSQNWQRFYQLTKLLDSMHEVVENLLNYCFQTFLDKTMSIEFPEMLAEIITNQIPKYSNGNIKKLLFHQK
Put plainly: Trans-Activation Modulation of Glucocorticoid Receptor (GRAMMER), MMTV-LUC reporter, agonist mode. Also on record: endogenous in cells. It is filed as cell-based. The following applies: for Emax: A549, A549 cells, maximum activity, read-out: Transactivation A549 Cells GRAMMER Emax; for EC50: A549 cells, inflection point, read-out: Transactivation A549 Cells GRAMMER IP. In a few lines: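 Readout is luciferase from a modified MMTV LTR promoter after 24 h compound exposure alongside 10 nM dexamethasone (100% activity reference), DMSO ≤1%.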

Assay [2] deals with T1, human GR. Put plainly: Transrepression Assay (GITAR), TNFα-β-lactamase reporter in U937 cells. More on the design: U937 cells contain an endogenous glucocorticoid receptor (GR); endogenous in cells; host or cells: U937 cells stably transfected with the TNF-alpha promoter/beta-lactamase reporter. The following applies: for GITAR > GRAMM % SEP: GITAR Emax minus GRAMMER Emax; for EC50: U937 cells, inflection point, read-out: Transrepression U937 Cells GITAR IP. It is filed as cell-based. In a few lines: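 Repression normalised to 100 nM dexamethasone (100%), measured with CCF2-AM β-lactamase substrate after 70–90 min at room temperature. Stably transfected U937 cells were exposed to compound 30–45 min, then to PMA (5 ng/ml final) plus LPS (100 ng/ml final) overnight (~18 hr), 37° C.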

[3] abbreviates: U-937, U937 cells, maximum activity, read-out: Transrepression U937 Cells GITAR Emax.
The mark [4] stands for this setting: U-937, activity repressed by 100 nM dexamethasone alone set as 100%, read-out: maximal activity in the transrepression (GITAR) assay.

Molecules are shown by their SMILES.

Regarding `CC(=O)Nc1ccc(S(=O)(=O)N(CCO)C[C@H]2CCC3=Cc4c(cnn4-c4ccc(F)cc4)C[C@@]32C)cc1` [Example 85, N-(4-{[{[(4αR,5S)-1-(4-fluorophenyl)-4α-methyl-1,4,4α,5,6,7-hexahydrocyclopenta[f]indazol-5-yl]methyl}(2-hydroxyethyl)amino]sulfonyl}phenyl)acetamide], the Emax on human GR [1] was 1.6%; on human GR [2] (setting [3]), 38.8%; at human GR [2] (setting [4]) it was greater than 5%. Further, the values for the EC50 at human GR [1] and at human GR [2] were 73.7 nM and 4230 nM, respectively. Also, the “GITAR > GRAMM % SEP” value at human GR [2] is 37.1%.

As for `C[C@]12Cc3cnn(-c4ccc(F)cc4)c3C=C1CC[C@@H]2CN(CCc1ccccc1F)S(=O)(=O)c1ccccc1F` [Example 86, 2-fluoro-N-[2-(2-fluorophenyl)ethyl]-N-{[(4αR,5S)-1-(4-fluorophenyl)-4α-methyl-1,4,4α,5,6,7-hexahydrocyclopenta[f]indazol-5-yl]methyl}benzenesulfonamide], the values for the Emax at human GR [1], at human GR [2] (setting [3]) and at human GR [2] (setting [4]) were 68.2%, 80.6% and greater than 5%, respectively. For the same compound, the EC50 came out at 68.6 nM at human GR [1] and 262 nM at human GR [2]. In addition, the “GITAR > GRAMM % SEP” value on human GR [2] is 12.4%.

Take `CCCS(=O)(=O)N(CCc1ccccc1F)C[C@H]1CCC2=Cc3c(cnn3-c3ccc(F)cc3)C[C@@]21C` [Example 87, N-[2-(2-fluorophenyl)ethyl]-N-{[(4αR,5S)-1-(4-fluorophenyl)-4α-methyl-1,4,4α,5,6,7-hexahydrocyclopenta[f]indazol-5-yl]methyl}propane-1-sulfonamide]: the Emax at human GR [1] is 65.1%; on human GR [2] (setting [3]) it was 85.1%; on human GR [2] (setting [4]) it was greater than 5%. For the same compound, the EC50 on human GR [1] was determined as 231 nM; on human GR [2] it was 212 nM. Moreover, on human GR [2], the “GITAR > GRAMM % SEP” value is given as 20.0%.

In the case of `C[C@]12Cc3cnn(-c4ccc(F)cc4)c3C=C1CC[C@@H]2CN(CCc1ccccc1F)S(=O)(=O)Cc1cccc(C(F)(F)F)c1` [Example 88, N-[2-(2-fluorophenyl)ethyl]-N-{[(4αR,5S)-1-(4-fluorophenyl)-4α-methyl-1,4,4α,5,6,7-hexahydrocyclopenta[f]indazol-5-yl]methyl}-1-[3-(trifluoromethyl)phenyl]methanesulfonamide], the Emax at human GR [1] is 25.3%; on human GR [2] (setting [3]), 57.7%; on human GR [2] (setting [4]), greater than 5%. Also, the EC50 was 618 nM at human GR [1] and 646 nM at human GR [2]. The “GITAR > GRAMM % SEP” value at human GR [2] was found to be 32.4%.

For `C[C@]12Cc3cnn(-c4ccc(F)cc4)c3C=C1CC[C@@H]2CN(CCc1ccccc1F)S(=O)(=O)CC(F)(F)F` [Example 89, 2,2,2-trifluoro-N-[2-(2-fluorophenyl)ethyl]-N-{[(4αR,5S)-1-(4-fluorophenyl)-4α-methyl-1,4,4α,5,6,7-hexahydrocyclopenta[f]indazol-5-yl]methyl}ethanesulfonamide], the Emax at human GR [1] is 81.4%; on human GR [2] (setting [3]), 95.6%; on human GR [2] (setting [4]), greater than 5%. Moreover, the values for the EC50 on human GR [1] and at human GR [2] were 119 nM and 138 nM, respectively. Besides, the “GITAR > GRAMM % SEP” value on human GR [2] is listed as 14.3%.

Take `COc1ccccc1CCN(C[C@H]1CCC2=Cc3c(cnn3-c3ccc(F)cc3)C[C@@]21C)S(=O)(=O)c1ccccc1F` [Example 90, 2-fluoro-N-{[(4αR,5S)-1-(4-fluorophenyl)-4α-methyl-1,4,4α,5,6,7-hexahydrocyclopenta[f]indazol-5-yl]methyl}-N-[2-(2-methoxyphenyl)ethyl]benzenesulfonamide]: the values for the Emax at human GR [1], at human GR [2] (setting [3]) and on human GR [2] (setting [4]) were 33.5%, 67.6% and greater than 5%, respectively. Besides, the EC50 at human GR [1] turned out to be 354 nM; at human GR [2], 651 nM. Further, the “GITAR > GRAMM % SEP” value on human GR [2] is listed as 34.0%.

`Cc1ccc(CCN(C[C@H]2CCC3=Cc4c(cnn4-c4ccc(F)cc4)C[C@@]32C)S(=O)(=O)c2ccccc2F)cc1` [Example 91, 2-fluoro-N-{[(4αR,5S)-1-(4-fluorophenyl)-4α-methyl-1,4,4α,5,6,7-hexahydrocyclopenta[f]indazol-5-yl]methyl}-N-[2-(4-methylphenyl)ethyl]benzenesulfonamide]: the Emax at human GR [1] was 10.7%; on human GR [2] (setting [3]), 61.5%; at human GR [2] (setting [4]), greater than 5%. Also, the results for the EC50 at human GR [1] and on human GR [2] were 643 nM and 973 nM, respectively. At human GR [2], the “GITAR > GRAMM % SEP” value is on record as 50.8%.

For `C[C@]12Cc3cnn(-c4ccc(F)cc4)c3C=C1CC[C@@H]2CN(CCc1ccccc1Cl)S(=O)(=O)c1ccccc1F` [Example 92, N-[2-(2-chlorophenyl)ethyl]-2-fluoro-N-{[(4αR,5S)-1-(4-fluorophenyl)-4α-methyl-1,4,4α,5,6,7-hexahydrocyclopenta[f]indazol-5-yl]methyl}benzenesulfonamide], the Emax at human GR [1] is 41.6%; at human GR [2] (setting [3]) it was 68.5%; on human GR [2] (setting [4]) it was greater than 5%. Further, the values for the EC50 at human GR [1] and on human GR [2] were 504 nM and 493 nM, respectively. Also, the “GITAR > GRAMM % SEP” value on human GR [2] amounted to 26.9%.

For the compound `CC(C1CCC2=Cc3c(cnn3-c3ccc(F)cc3)C[C@@]21C)N(CCc1ccccc1F)S(=O)(=O)CC(F)(F)F` (stereo partly drawn) [Example 93, 2,2,2-trifluoro-N-[2-(2-fluorophenyl)ethyl]-N-{1-[(4αR)-1-(4-fluorophenyl)-4α-methyl-1,4,4α,5,6,7-hexahydrocyclopenta[f]indazol-5-yl]ethyl}ethanesulfonamide], the Emax on human GR [1] is 50.9%; at human GR [2] (setting [3]), 71.8%; on human GR [2] (setting [4]) it was greater than 5%. For the same compound, the EC50 on human GR [1] amounted to 296 nM; at human GR [2], 231 nM. Moreover, at human GR [2], the “GITAR > GRAMM % SEP” value came out at 20.8%.

As to `COCCN(C[C@H]1CCC2=Cc3c(cnn3-c3ccc(F)cc3)C[C@@]21C)S(=O)(=O)c1ccccc1F` [Example 94, 2-fluoro-N-{[(4αR,5S)-1-(4-fluorophenyl)-4α-methyl-1,4,4α,5,6,7-hexahydrocyclopenta[f]indazol-5-yl]methyl}-N-(2-methoxyethyl)benzenesulfonamide], the results for the Emax on human GR [1], at human GR [2] (setting [3]) and at human GR [2] (setting [4]) were 43.9%, 75.5% and greater than 5%, respectively. Further, the EC50 was 423 nM at human GR [1] and 412 nM at human GR [2]. Besides, the “GITAR > GRAMM % SEP” value at human GR [2] amounted to 31.6%.
